In the assay the target is T1, 4,4'-diapophytoene desaturase (4,4'-diaponeurosporene-forming) (Staphylococcus aureus (strain Newman), UniProt O07855).
T1 sequence (O07855 whole entry): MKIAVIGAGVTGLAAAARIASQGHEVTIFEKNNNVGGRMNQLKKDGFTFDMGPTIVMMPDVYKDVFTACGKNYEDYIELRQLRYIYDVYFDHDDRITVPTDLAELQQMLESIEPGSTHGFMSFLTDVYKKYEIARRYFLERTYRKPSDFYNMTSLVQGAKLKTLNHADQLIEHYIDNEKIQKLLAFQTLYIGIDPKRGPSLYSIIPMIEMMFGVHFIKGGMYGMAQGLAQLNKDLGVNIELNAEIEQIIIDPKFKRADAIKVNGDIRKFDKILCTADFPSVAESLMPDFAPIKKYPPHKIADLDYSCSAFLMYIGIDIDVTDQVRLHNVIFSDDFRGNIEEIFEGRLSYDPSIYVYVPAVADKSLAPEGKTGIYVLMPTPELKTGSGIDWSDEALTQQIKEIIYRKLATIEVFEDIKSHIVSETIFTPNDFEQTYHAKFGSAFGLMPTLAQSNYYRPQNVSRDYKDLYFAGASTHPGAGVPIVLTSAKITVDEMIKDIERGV
The assay is described as follows: Inhibition of CrtN in Staphylococcus aureus Newman assessed as reduction in staphyloxanthin levels after 48 hrs by spectrophotometric method-based pigment inhibition assay. On the set-up: species or system Staphylococcus aureus subsp. aureus str. Newman.

pIC50: −log10 of the molar value.

For `COc1ccc(/C=C/CN(C)Cc2coc3ccccc23)cc1F`, the negative-log IC50 (pIC50) was less than 6.00.

Take `Cc1cccc(/C=C/CN(C)Cc2cccc3cc[nH]c23)c1`: the negative logarithm of the IC50 (pIC50) was less than 6.00.

As to `COc1ccccc1/C=C/CN(C)Cc1cccc2cc[nH]c12`, the negative-log IC50 (pIC50) was less than 6.00.

For `CN(C/C=C/c1ccc(C(F)(F)F)cc1)Cc1cc2ccccc2o1`, the pIC50 was 7.14.

On to `CN(C/C=C/c1cccs1)Cc1cccc2cc[nH]c12`, for which the negative-log IC50 (pIC50) was less than 6.00.

Take `CCN(C/C=C/c1ccc(C(F)(F)F)cc1)CC1=COC2C=CC=CC12` (stereo not given): the negative-log IC50 (pIC50) is less than 6.00.

On to `CN(C/C=C/c1ccc(C(C)(C)C)cc1)Cc1cccc2cc[nH]c12`, for which the pIC50 is 6.15.

With `CN(C/C=C/c1cccc(C(F)(F)F)c1)Cc1cccc2cc[nH]c12`, the negative logarithm of the IC50 (pIC50) is less than 6.00.

For the compound `CN(C/C=C/c1cccc([N+](=O)[O-])c1)Cc1cccc2cc[nH]c12`, the negative logarithm of the IC50 (pIC50) was less than 6.00.

Take `CN(C/C=C/c1ccc([N+](=O)[O-])cc1)Cc1coc2ccccc12`: the pIC50 was 8.02.

For the compound `CN(C/C=C/c1ccc(C(F)(F)F)c(F)c1)Cc1coc2ccccc12`, the pIC50 is less than 6.00.

Turning to `CN(C/C=C/c1ccc(C(F)(F)F)c(F)c1)Cc1cccc2cc[nH]c12`, the negative logarithm of the IC50 (pIC50) is less than 6.00.

Consider `CN(C/C=C/c1ccco1)Cc1coc2ccccc12`, for which the pIC50 is less than 6.00.

Regarding `CN(C/C=C/C=C/c1ccc(-c2ccccc2)cc1)Cc1coc2ccccc12`, the pIC50 is less than 6.00.

With `CN(C/C=C/c1ccc(F)cc1)Cc1cccc2cc[nH]c12`, the pIC50 was less than 6.00.

On to `CN(C/C=C/c1ccc(C(F)(F)F)cc1)Cc1cc2ccccc2[nH]1`, for which the pIC50 is less than 6.00.

For the compound `CN(C/C=C/c1ccc(C(F)(F)F)cc1)Cc1c[nH]c2ccccc12`, the pIC50 is less than 6.00.

In the case of `FC(F)(F)c1ccc(/C=C/CNCc2cccc3cc[nH]c23)cc1`, the pIC50 is less than 6.00.

As to `CN(C/C=C/c1ccc(C#N)cc1)Cc1cccc2cc[nH]c12`, the pIC50 is 6.11.

In the case of `CN(C/C=C/c1ccc(C(F)(F)F)cc1)Cc1coc2ccccc12`, the pIC50 is 8.01.

For the compound `CN(C/C=C/c1ccc(C(F)(F)F)cc1)Cc1cccc2cc[nH]c12`, the pIC50 was 7.30.

In the case of `Cc1cccc(/C=C/CN(C)Cc2coc3ccccc23)c1`, the pIC50 is less than 6.00.

Regarding `CN(C/C=C/c1ccccc1C(F)(F)F)Cc1cccc2cc[nH]c12`, the negative logarithm of the IC50 (pIC50) is less than 6.00.

For the compound `CN(C/C=C/c1ccco1)Cc1cccc2cc[nH]c12`, the pIC50 is less than 6.00.

For the compound `CN(C/C=C/c1ccc2ccccc2c1)Cc1cccc2cc[nH]c12`, the negative logarithm of the IC50 (pIC50) is 6.88.

In the case of `CN(C/C=C/c1ccc(C(F)F)cc1)Cc1coc2ccccc12`, the negative-log IC50 (pIC50) was 8.19.

Take `CN(CC#Cc1ccc(-c2ccccc2)cc1)Cc1cccc2cc[nH]c12`: the pIC50 was 6.99.

`CN(C/C=C/C1CCCC1)Cc1coc2ccccc12`: the pIC50 is 6.40.

Regarding `CN(C/C=C/c1ccc(Cl)cc1)Cc1cccc2cc[nH]c12`, the pIC50 is 6.85.

With `CCOc1ccc(/C=C/CN(C)Cc2coc3ccccc23)cc1`, the negative logarithm of the IC50 (pIC50) is less than 6.00.

`CN(C/C=C/c1ccc(C(F)(F)F)cc1F)Cc1cccc2cc[nH]c12`: the negative-log IC50 (pIC50) was 7.32.

Take `CN(C/C=C/c1ccc(Br)cc1)Cc1cccc2cc[nH]c12`: the negative-log IC50 (pIC50) is 7.08.

On to `Cc1ccccc1/C=C/CN(C)Cc1cccc2cc[nH]c12`, for which the pIC50 was less than 6.00.

Consider `CN(C/C=C/c1ccc(C(F)(F)F)cc1)Cc1cc2ccccc2s1`, for which the pIC50 is 6.99.

For the compound `CN(CCCc1ccc(-c2ccccc2)cc1)Cc1coc2ccccc12`, the pIC50 is less than 6.00.

For the compound `CN(CC#Cc1ccc(-c2ccccc2)cc1)Cc1coc2ccccc12`, the pIC50 is less than 6.00.

Consider `COc1ccc(/C=C/CN(C)Cc2cccc3cc[nH]c23)cc1F`, for which the pIC50 is less than 6.00.

Regarding `COC(=O)c1ccc(/C=C/CN(C)Cc2cccc3cc[nH]c23)cc1`, the negative logarithm of the IC50 (pIC50) was 7.06.

As to `COC(=O)c1ccc(/C=C/CN(C)Cc2coc3ccccc23)cc1`, the pIC50 was 8.02.

On to `CN(C/C=C/c1ccc(Cl)cc1Cl)Cc1coc2ccccc12`, for which the pIC50 was 8.21.

Regarding `CN(C/C=C/c1ccccc1)Cc1coc2ccccc12`, the pIC50 is less than 6.00.

As to `CN(C/C=C/c1cccc(Cl)c1)Cc1coc2ccccc12`, the negative-log IC50 (pIC50) was less than 6.00.

Take `CN(C/C=C/c1ccc(C(F)(F)F)cc1)Cc1cccc2[nH]ccc12`: the pIC50 was 7.05.

Take `CN(C/C=C/c1ccc(C(F)(F)F)cc1)Cc1ccc2cc[nH]c2c1`: the negative logarithm of the IC50 (pIC50) is 7.19.

As to `C/C=C/CN(C)Cc1cccc2cc[nH]c12`, the negative logarithm of the IC50 (pIC50) was less than 6.00.

Consider `CN(C/C=C/C1CCCCC1)Cc1coc2ccccc12`, for which the pIC50 is less than 6.00.

Turning to `CN(C/C=C/c1cccc(C(F)(F)F)c1)Cc1coc2ccccc12`, the pIC50 was less than 6.00.

Turning to `CN(C/C=C/c1ccc(C(C)(C)C)cc1)Cc1coc2ccccc12`, the pIC50 is less than 6.00.

For the compound `CN(C/C=C/c1cccc(F)c1)Cc1coc2ccccc12`, the pIC50 is less than 6.00.

For `FC(F)(F)c1ccc(/C=C/CNCC2=COC3C=CC=CC23)cc1` (stereo not given), the pIC50 was less than 6.00.

`CN(C/C=C/c1ccc(F)cc1)Cc1coc2ccccc12`: the pIC50 was 7.13.

As for `Cc1ccc(/C=C/CN(C)Cc2coc3ccccc23)cc1`, the pIC50 was 8.00.

For the compound `CN(C/C=C/c1cccc(F)c1)Cc1cccc2cc[nH]c12`, the pIC50 was less than 6.00.

As to `CN(C/C=C/c1ccccc1F)Cc1coc2ccccc12`, the pIC50 is less than 6.00.

In the case of `COc1ccc(/C=C/CN(C)Cc2coc3ccccc23)c(F)c1`, the pIC50 was less than 6.00.

For `COc1ccc(/C=C/CN(C)Cc2cccc3cc[nH]c23)c(F)c1`, the pIC50 is 7.14.

Consider `Cc1ccccc1/C=C/CN(C)Cc1coc2ccccc12`, for which the pIC50 is 7.06.

`CN(C/C=C/c1ccccc1)Cc1cccc2cc[nH]c12`: the negative-log IC50 (pIC50) is less than 6.00.

Turning to `CN(C/C=C/c1ccccc1[N+](=O)[O-])Cc1cccc2cc[nH]c12`, the pIC50 is less than 6.00.

With `Cc1ccc(/C=C/CN(C)Cc2cccc3cc[nH]c23)cc1`, the negative logarithm of the IC50 (pIC50) was 6.70.

In the case of `CN(C/C=C/c1ccc(Cl)cc1Cl)Cc1cccc2cc[nH]c12`, the pIC50 was 6.55.

`CN(C/C=C/c1cccs1)Cc1coc2ccccc12`: the negative-log IC50 (pIC50) was less than 6.00.

For `COc1ccc(/C=C/CN(C)Cc2cccc3cc[nH]c23)cc1`, the pIC50 was 6.78.

Regarding `COc1ccccc1/C=C/CN(C)Cc1coc2ccccc12`, the pIC50 was less than 6.00.

With `CN(C/C=C/c1ccccc1Cl)Cc1cccc2cc[nH]c12`, the negative-log IC50 (pIC50) is less than 6.00.

On to `CC(C)N(C/C=C/c1ccc(C(F)(F)F)cc1)CC1=COC2C=CC=CC12` (stereo not given), for which the pIC50 was less than 6.00.

Consider `COc1cccc(/C=C/CN(C)Cc2coc3ccccc23)c1`, for which the pIC50 was less than 6.00.

On to `C/C(=C\c1ccc(-c2ccccc2)cc1)CN(C)Cc1cccc2cc[nH]c12`, for which the negative-log IC50 (pIC50) was less than 6.00.

Consider `CN(C/C=C/c1ccccc1F)Cc1cccc2cc[nH]c12`, for which the pIC50 was less than 6.00.

Take `CN(C/C=C/c1ccc(C(F)(F)F)cc1)Cc1ccc2[nH]ccc2c1`: the pIC50 was 7.20.

As to `CN(C/C=C/c1ccc(C(F)F)cc1)Cc1cccc2cc[nH]c12`, the pIC50 is 7.36.

As to `CC(C)N(C/C=C/c1ccc(C(F)(F)F)cc1)Cc1cccc2cc[nH]c12`, the negative logarithm of the IC50 (pIC50) is less than 6.00.

On to `CN(C/C=C/C1CCCC1)Cc1cccc2cc[nH]c12`, for which the pIC50 was less than 6.00.

`CN(C/C=C/c1ccccc1[N+](=O)[O-])Cc1coc2ccccc12`: the pIC50 was 7.13.

Turning to `COc1cccc(/C=C/CN(C)Cc2cccc3cc[nH]c23)c1`, the pIC50 is less than 6.00.

The record behind these values is ChEMBL document CHEMBL4024779, “Novel Terminal Bipheny-Based Diapophytoene Desaturases (CrtN) Inhibitors as Anti-MRSA/VISR/LRSA Agents with Reduced hERG Activity” (J Med Chem, 2018).
